From paper PMC7618541 (Science (New York, N.Y.), 2025)

Assays:
[1] = biological target: Nudix hydrolase 5 (NUDT5) (Homo sapiens, UniProt Q9UKK9); assay: PROTAC degradation of endogenous NUDT5 in cells, western blot, […] h; type: cell-based
[2] = biological target: phosphoribosyl pyrophosphate amidotransferase (PPAT) (Homo sapiens, UniProt Q06203); assay: GDH-coupled NADH fluorescence assay of purified PPAT; type: biochemical
phosphoribosyl pyrophosphate amidotransferase (PPAT), sequence (Q06203 12-517): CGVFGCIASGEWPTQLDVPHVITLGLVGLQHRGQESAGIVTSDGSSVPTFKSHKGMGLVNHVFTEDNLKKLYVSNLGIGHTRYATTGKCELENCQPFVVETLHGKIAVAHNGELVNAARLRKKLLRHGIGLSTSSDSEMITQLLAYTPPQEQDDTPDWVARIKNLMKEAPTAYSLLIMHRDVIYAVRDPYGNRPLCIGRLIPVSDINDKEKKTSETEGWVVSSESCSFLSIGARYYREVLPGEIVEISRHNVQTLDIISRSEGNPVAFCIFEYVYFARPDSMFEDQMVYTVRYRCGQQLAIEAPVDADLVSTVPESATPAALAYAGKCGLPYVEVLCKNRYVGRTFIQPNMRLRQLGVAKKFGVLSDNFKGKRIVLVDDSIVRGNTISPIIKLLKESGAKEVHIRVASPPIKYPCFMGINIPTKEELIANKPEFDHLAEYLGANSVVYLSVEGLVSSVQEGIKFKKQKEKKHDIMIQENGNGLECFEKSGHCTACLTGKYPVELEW

PROTAC degradation of endogenous NUDT5 in cells, western blot, 20 h [1] [nM] | SMILES | GDH-coupled NADH fluorescence assay of purified PPAT [2]
100 | Cn1c(=O)c2c(nc(N3CCN(C(=O)N4CCC(CN5CCN(c6ccc7c(c6)C(=O)N(C6CCC(=O)NC6=O)C7=O)CC5)CC4)CC3)n2Cc2nnc(-c3ccc(Cl)c(Cl)c3)o2)n(C)c1=O (centres unmarked) [dNUDT5] | 
 | NC(=O)CC[C@H](N)C(=O)O [glutamine] | the first half reaction of PPAT reaction was assayed by monitoring the production of glutamate from glutamine
